Data: patent US12018059B2, “Human amylin analog polypeptides and methods of use” (Intarcia Therapeutics, Inc., priority 2018, dated 2024)
Starred links: 1 amine or outer side, 2 acyl side, 3 side chain; linkers in the order of their positions; H or OH if unused. Positions of bridges follow the written chain, without caps; N, C: chain ends. Non-standard residues stand in square brackets, D forms with d. Residues, ends and D or L forms follow the SMILES beside them. Groups on a side chain read outwards from the residue. *: point of attachment. X1 = O=C(O)CCCCCCCCCCCCCCCCCCC(=O)NCOCCOCC(=O)*; C20 diacid = O=C(O)CCCCCCCCCCCCCCCCCCC(=O)*; C18 diacid = O=C(O)CCCCCCCCCCCCCCCCC(=O)*; γGlu = O=C(O)[C@H](CCC(=O)[*:2])N[*:1]; Palmitoyl = CCCCCCCCCCCCCCCC(=O)*; AEEA = NCCOCCOCC(=O)O

Assay: in vivo
Parameters: species or system Sprague-Dawley rats
Conditions: male, Sprague-Dawley, rat, iv, 0.033 mg/kg
How it was run: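 Peptide plasma levels measured by UPLC-MS/MS (C18, product-ion monitoring) after protein precipitation or WCX SPE, calibrated in K2EDTA/protease-inhibitor rat plasma. Dosing in non-fasted male Sprague-Dawley rats (n=3): 0.033 mg/kg over 1 h by IV or SC infusion, or 0.3 mg/kg SC bolus; sampling up to 48 h.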

Vd [L/kg]	clearance [mL/min/kg]	half-life [h]	Compound
0.176	0.105	21.3	CC[C@H](C)[C@H](NC(=O)[C@@H]1CCCN1C(=O)CNC(=O)[C@H](Cc1ccccc1)NC(=O)[C@H](CC(N)=O)NC(=O)[C@H](CC(N)=O)NC(=O)[C@H](CO)NC(=O)[C@H](CO)NC(=O)[C@H](CCCCN)NC(=O)[C@H](Cc1c[nH]cn1)NC(=O)[C@H](CCCCNC(=O)CC[C@H](NC(=O)CCCCCCCCCCCCCCCCC(=O)O)C(=O)O)NC(=O)[C@H](CCC(=O)O)NC(=O)[C@H](CC(N)=O)NC(=O)[C@H](C)NC(=O)[C@H](CC(C)C)NC(=O)[C@H](CCCNC(=N)N)NC(=O)[C@H](CCC(N)=O)NC(=O)[C@@H](NC(=O)[C@H](C)NC(=O)[C@@H]1CSSC[C@H](NC(=O)[C@@H](N)CO)C(=O)N[C@@H](CC(N)=O)C(=O)N[C@@H]([C@@H](C)O)C(=O)N[C@@H](CO)C(=O)N[C@@H]([C@@H](C)O)C(=O)N1)[C@@H](C)O)C(=O)N[C@@H](CC(C)C)C(=O)N1CCC[C@H]1C(=O)N1CCC[C@H]1C(=O)N[C@H](C(=O)N[C@@H](CCCCN)C(=O)N[C@H](C(=O)NCC(=O)N[C@@H](CO)C(=O)N[C@@H](CCC(=O)O)C(=O)N[C@H](C(=O)N[C@@H](Cc1ccc(O)cc1)C(N)=O)[C@@H](C)O)C(C)C)[C@@H](C)O [Compound A76] (H-SCNTSTCATQRLANEK([γGlu-C18 diacid])HKSSNNFGPILPPTKVGSETY-NH2; disulfide 2-7; N-terminus assumed)

Same assay, conditions: rat, iv, 0.033 mg/kg

Compound	Vd [L/kg]	clearance [mL/min/kg]	half-life [h]
CC[C@H](C)[C@H](NC(=O)[C@@H]1CCCN1C(=O)CNC(=O)[C@H](Cc1ccccc1)NC(=O)[C@H](CC(N)=O)NC(=O)[C@H](CC(N)=O)NC(=O)[C@H](CO)NC(=O)[C@H](CO)NC(=O)[C@H](CCCCN)NC(=O)[C@H](Cc1c[nH]cn1)NC(=O)[C@H](CC(C)C)NC(=O)[C@@H](CCCCNC(=O)CC[C@H](NC(=O)CC[C@H](NC(=O)COCCOCNC(=O)CCCCCCCCCCCCCCCCCCC(=O)O)C(=O)O)C(=O)O)NC(=O)[C@H](CC(N)=O)NC(=O)[C@H](C)NC(=O)[C@H](CC(C)C)NC(=O)[C@H](CCCNC(=N)N)NC(=O)[C@H](CCC(N)=O)NC(=O)[C@@H](NC(=O)[C@H](C)NC(=O)[C@@H]1CSSC[C@H](NC(=O)[C@@H](N)CO)C(=O)N[C@@H](CC(N)=O)C(=O)N[C@@H]([C@@H](C)O)C(=O)N[C@@H](CO)C(=O)N[C@@H]([C@@H](C)O)C(=O)N1)[C@@H](C)O)C(=O)N[C@@H](CC(C)C)C(=O)N1CCC[C@H]1C(=O)N1CCC[C@H]1C(=O)N[C@H](C(=O)N[C@@H](CCCCN)C(=O)N[C@H](C(=O)NCC(=O)N[C@@H](CO)C(=O)N[C@@H](CCC(=O)O)C(=O)N[C@H](C(=O)N[C@@H](Cc1ccc(O)cc1)C(N)=O)[C@@H](C)O)C(C)C)[C@@H](C)O [Compound A96] (H-SCNTSTCATQRLAN[dK]([γGlu-γGlu-X1])LHKSSNNFGPILPPTKVGSETY-NH2; disulfide 2-7; N-terminus assumed)	0.153	0.0996	20.1
CC[C@H](C)[C@H](NC(=O)[C@@H]1CCCN1C(=O)CNC(=O)[C@H](Cc1ccccc1)NC(=O)[C@H](CC(N)=O)NC(=O)[C@H](CC(N)=O)NC(=O)[C@H](CO)NC(=O)[C@H](CO)NC(=O)[C@H](CCCCN)NC(=O)[C@H](Cc1c[nH]cn1)NC(=O)[C@H](CC(C)C)NC(=O)[C@@H](CCCCNC(=O)CC[C@H](NC(=O)CC[C@H](NC(=O)COCCOCCNC(=O)COCCOCCNC(=O)CC[C@H](NC(=O)CCCCCCCCCCCCCCCCCCC(=O)O)C(=O)O)C(=O)O)C(=O)O)NC(=O)[C@H](CC(N)=O)NC(=O)[C@H](C)NC(=O)[C@H](CC(C)C)NC(=O)[C@H](CCCNC(=N)N)NC(=O)[C@H](CCC(N)=O)NC(=O)[C@@H](NC(=O)[C@H](C)NC(=O)[C@@H]1CSSC[C@H](NC(=O)[C@@H](N)CO)C(=O)N[C@@H](CC(N)=O)C(=O)N[C@@H]([C@@H](C)O)C(=O)N[C@@H](CO)C(=O)N[C@@H]([C@@H](C)O)C(=O)N1)[C@@H](C)O)C(=O)N[C@@H](CC(C)C)C(=O)N1CCC[C@H]1C(=O)N1CCC[C@H]1C(=O)N[C@H](C(=O)N[C@@H](CCCCN)C(=O)N[C@H](C(=O)NCC(=O)N[C@@H](CO)C(=O)N[C@@H](CCC(=O)O)C(=O)N[C@H](C(=O)N[C@@H](Cc1ccc(O)cc1)C(N)=O)[C@@H](C)O)C(C)C)[C@@H](C)O [Compound A101] (H-SCNTSTCATQRLAN[dK]([γGlu-γGlu-AEEA-AEEA-γGlu-C20 diacid])LHKSSNNFGPILPPTKVGSETY-NH2; disulfide 2-7; N-terminus assumed)	0.149	0.0675	28.4
CCCCCCCCCCCCCCCC(=O)N[C@@H](CCC(=O)N[C@@H](CCC(=O)NCCCC[C@@H](NC(=O)[C@H](Cc1ccccc1)NC(=O)[C@H](CC(N)=O)NC(=O)[C@H](C)NC(=O)[C@H](CC(C)C)NC(=O)[C@H](CCCNC(=N)N)NC(=O)[C@H](CCC(N)=O)NC(=O)[C@@H](NC(=O)[C@H](C)NC(=O)[C@@H]1CSSC[C@H](NC(=O)[C@@H](N)CO)C(=O)N[C@@H](CC(N)=O)C(=O)N[C@@H]([C@@H](C)O)C(=O)N[C@@H](CO)C(=O)N[C@@H]([C@@H](C)O)C(=O)N1)[C@@H](C)O)C(=O)N[C@@H](Cc1c[nH]cn1)C(=O)N[C@@H](CCCCN)C(=O)N[C@@H](CO)C(=O)N[C@@H](CO)C(=O)N[C@@H](CC(N)=O)C(=O)N[C@@H](CC(N)=O)C(=O)N[C@@H](Cc1ccccc1)C(=O)NCC(=O)N1CCC[C@H]1C(=O)N[C@H](C(=O)N[C@@H](CC(C)C)C(=O)N1CCC[C@H]1C(=O)N1CCC[C@H]1C(=O)N[C@H](C(=O)N[C@@H](CCCCN)C(=O)N[C@H](C(=O)NCC(=O)N[C@@H](CO)C(=O)N[C@@H](CCC(=O)O)C(=O)N[C@H](C(=O)N[C@@H](Cc1ccc(O)cc1)C(N)=O)[C@@H](C)O)C(C)C)[C@@H](C)O)[C@@H](C)CC)C(=O)O)C(=O)O [Compound A70] (H-SCNTSTCATQRLANF[dK]([γGlu-γGlu-Palmitoyl])HKSSNNFGPILPPTKVGSETY-NH2; disulfide 2-7)	0.187	3.08	0.752

The remaining lines, values ahead:

Vd [L/kg]	clearance [mL/min/kg]	half-life [h]	Compound
0.396	6.45	1.01	CCCCCCCCCCCCCCCC(=O)N[C@@H](CCC(=O)NCCCC[C@H](NC(=O)[C@@H]1CSSC[C@H](NC(=O)[C@@H](N)CO)C(=O)N[C@@H](CC(N)=O)C(=O)N[C@@H]([C@@H](C)O)C(=O)N[C@@H](CO)C(=O)N[C@@H]([C@@H](C)O)C(=O)N1)C(=O)N[C@H](C(=O)N[C@@H](CCC(N)=O)C(=O)N[C@@H](CCCNC(=N)N)C(=O)N[C@@H](CC(C)C)C(=O)N[C@@H](C)C(=O)N[C@@H](CC(N)=O)C(=O)N[C@@H](CCC(=O)O)C(=O)N[C@@H](CC(C)C)C(=O)N[C@@H](Cc1c[nH]cn1)C(=O)N[C@@H](CCCCN)C(=O)N[C@@H](CO)C(=O)N[C@@H](CO)C(=O)N[C@@H](CC(N)=O)C(=O)N[C@@H](CC(N)=O)C(=O)N[C@@H](Cc1ccccc1)C(=O)NCC(=O)N1CCC[C@H]1C(=O)N[C@H](C(=O)N[C@@H](CC(C)C)C(=O)N1CCC[C@H]1C(=O)N1CCC[C@H]1C(=O)N[C@H](C(=O)N[C@@H](CCCCN)C(=O)N[C@H](C(=O)NCC(=O)N[C@@H](CO)C(=O)N[C@@H](CCC(=O)O)C(=O)N[C@H](C(=O)N[C@@H](Cc1ccc(O)cc1)C(N)=O)[C@@H](C)O)C(C)C)[C@@H](C)O)[C@@H](C)CC)[C@@H](C)O)C(=O)O [Compound A108] (H-SCNTSTCK([γGlu-Palmitoyl])TQRLANELHKSSNNFGPILPPTKVGSETY-NH2; disulfide 2-7)
0.239	2.11	1.8	CCCCCCCCCCCCCCCC(=O)N[C@@H](CCC(=O)NCCCC[C@H](NC(=O)[C@H](CCCNC(=N)N)NC(=O)[C@H](CCC(N)=O)NC(=O)[C@@H](NC(=O)[C@H](C)NC(=O)[C@@H]1CSSC[C@H](NC(=O)[C@@H](N)CO)C(=O)N[C@@H](CC(N)=O)C(=O)N[C@@H]([C@@H](C)O)C(=O)N[C@@H](CO)C(=O)N[C@@H]([C@@H](C)O)C(=O)N1)[C@@H](C)O)C(=O)N[C@@H](C)C(=O)N[C@@H](CC(N)=O)C(=O)N[C@@H](CCC(=O)O)C(=O)N[C@@H](CC(C)C)C(=O)N[C@@H](Cc1c[nH]cn1)C(=O)N[C@@H](CCCCN)C(=O)N[C@@H](CO)C(=O)N[C@@H](CO)C(=O)N[C@@H](CC(N)=O)C(=O)N[C@@H](CC(N)=O)C(=O)N[C@@H](Cc1ccccc1)C(=O)NCC(=O)N1CCC[C@H]1C(=O)N[C@H](C(=O)N[C@@H](CC(C)C)C(=O)N1CCC[C@H]1C(=O)N1CCC[C@H]1C(=O)N[C@H](C(=O)N[C@@H](CCCCN)C(=O)N[C@H](C(=O)NCC(=O)N[C@@H](CO)C(=O)N[C@@H](CCC(=O)O)C(=O)N[C@H](C(=O)N[C@@H](Cc1ccc(O)cc1)C(N)=O)[C@@H](C)O)C(C)C)[C@@H](C)O)[C@@H](C)CC)C(=O)O [Compound A121] (H-SCNTSTCATQRK([γGlu-Palmitoyl])ANELHKSSNNFGPILPPTKVGSETY-NH2; disulfide 2-7)
0.211	3.56	0.963	CCCCCCCCCCCCCCCC(=O)N[C@@H](CCC(=O)NCCCC[C@H](NC(=O)[C@H](CCC(=O)O)NC(=O)[C@H](CC(N)=O)NC(=O)[C@H](C)NC(=O)[C@H](CC(C)C)NC(=O)[C@H](CCCNC(=N)N)NC(=O)[C@H](CCC(N)=O)NC(=O)[C@@H](NC(=O)[C@H](C)NC(=O)[C@@H]1CSSC[C@H](NC(=O)[C@@H](N)CO)C(=O)N[C@@H](CC(N)=O)C(=O)N[C@@H]([C@@H](C)O)C(=O)N[C@@H](CO)C(=O)N[C@@H]([C@@H](C)O)C(=O)N1)[C@@H](C)O)C(=O)N[C@@H](Cc1c[nH]cn1)C(=O)N[C@@H](CCCCN)C(=O)N[C@@H](CO)C(=O)N[C@@H](CO)C(=O)N[C@@H](CC(N)=O)C(=O)N[C@@H](CC(N)=O)C(=O)N[C@@H](Cc1ccccc1)C(=O)NCC(=O)N1CCC[C@H]1C(=O)N[C@H](C(=O)N[C@@H](CC(C)C)C(=O)N1CCC[C@H]1C(=O)N1CCC[C@H]1C(=O)N[C@H](C(=O)N[C@@H](CCCCN)C(=O)N[C@H](C(=O)NCC(=O)N[C@@H](CO)C(=O)N[C@@H](CCC(=O)O)C(=O)N[C@H](C(=O)N[C@@H](Cc1ccc(O)cc1)C(N)=O)[C@@H](C)O)C(C)C)[C@@H](C)O)[C@@H](C)CC)C(=O)O [Compound A125] (H-SCNTSTCATQRLANEK([γGlu-Palmitoyl])HKSSNNFGPILPPTKVGSETY-NH2; disulfide 2-7)
